Measured values taken from PMC12913230, “Investigating the Ligand‐Binding Properties of N‐arylbenzimidazoles as Novel Elastase Inhibitors” (Chemmedchem, 2025).

Assays:
[1] = Relative lipophilicity by reverse-phase TLC (RM); assay type: physicochemical; details: RP-TLC C18, acetone–water 2/1 v/v, 25 °C, RM = log[(1/RF) − 1]
Protocol: In addition, we assessed the relative lipophilicity of the investigated compounds using the reverse‐phase thin layer chromatography (RP‐TLC), following the procedure detailed in Experimental Section. Based on retention factor (R F), we obtained the corresponding R M values for the homogenous series of compounds 1–9. The applied methodology is described in detail in the Experimental Section.
The experimental determination of relative lipophilicity was carried out using reversed‐phase thin‐layer chromatography (20 × 20 cm plates coated with C18 silica RP18 F254, E. Merck, Darmstadt, Germany). A binary solvent system consisting of acetone–water (2/1, v/v) served as the mobile phase. Compounds 1–9 were prepared in methanol to obtain a concentration of 2.0 mg/mL; from these working solutions, a volume of 0.2 μL was spotted on the plate, which was dried at 105 °C for 1 h before use. The chromatograms were developed to a distance of 10 cm from the origin in ascending TLC chambers and developed at 25 °C. After development, compound spots were visualized under UV light at 254 nm. Each determination was performed as triplicate 3 by spotting the compounds on the plate in distinct position; therefore, each RF value resulted as a mean value obtained in triplicate.

[2] = molecular target: T1, porcine pancreatic elastase (PPE) (Sus scrofa, UniProt P00772); set-up: method as in PMID 39456954; details: PPE active site; cited from earlier work
T1 construct: purchased Merck Sigma Aldrich (Milano, Italy)
T1 sequence (P00772 27-266): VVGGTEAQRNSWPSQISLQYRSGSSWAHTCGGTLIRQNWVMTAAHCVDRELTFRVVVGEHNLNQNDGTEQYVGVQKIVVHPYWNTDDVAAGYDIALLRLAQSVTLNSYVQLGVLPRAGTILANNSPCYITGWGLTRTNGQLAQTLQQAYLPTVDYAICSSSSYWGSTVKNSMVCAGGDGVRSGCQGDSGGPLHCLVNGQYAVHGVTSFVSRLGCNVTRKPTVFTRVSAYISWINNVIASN

[3] = molecular target: T1, porcine pancreatic elastase (PPE); assay: Elastase inhibition assay with SANA substrate; assay type: biochemical; details: for %I @50 μM / mode of inhibition (Lineweaver–Burk plot) / IC50: PPE; for %I @50 μM: 50 µM compound, SANA substrate, mean ± SD, n = 3; for mode of inhibition (Lineweaver–Burk plot): SANA as substrate; for IC50: SANA substrate 1.6 mM, Tris-HCl pH 8.0; for Ki: binding with the free enzyme, secondary plot of Lineweaver–Burk slopes, SANA 0.5-1.5 mM, read-out: inhibition constant (Ki)
Protocol: The inhibition mechanism was assessed using Lineweaver–Burk plot analysis.
Elastase inhibition was determined using the substrate N‐succ‐(Ala)3‐nitroanilide (SANA) as previously described.^[ [27] ^] The assay was performed in 0.1 M Tris‐HCl buffer (pH 8.0). PPE (3.3 µg mL^−1) was incubated with or without the compound for 20 min, and after incubation, the substrate (1.6 mM) was added. The release of p‐nitroaniline during cleavage of the substrate SANA by the enzyme activity was monitored at 410 nm. The control was performed with DMSO, while oleanolic acid was used as a positive control. […] The mode of inhibition on the enzyme was performed using the Lineweaver–Burk plot. Different concentrations of SANA (0.5, 0.75, 1.0, and 1.5 mM) were used for the assay. All reagents were purchased from “Merck Sigma Aldrich” (Milano, Italy).

Row | Compound | RM (relative lipophilicity) [1] | mode of inhibition [2] | %I @50 μM [3] [%] | mode of inhibition (Lineweaver–Burk plot) [3] | IC50 [3] [µM] | Ki [3] [µM]
1 | Cc1cc(C)cc(Cn2c(SCC(=O)Nc3ccc(C)cc3Cl)nc3ccccc32)c1 [Compound 1, N‐(2‐chloro‐4‐methylphenyl)‐2‐[[1‐[(3,5‐dimethylphenyl)methyl]‐1H‐benzimidazol‐2‐yl]thio]acetamide] | 1.023 | reversible competitive inhibitor | 30.0 ± 2.1 |  |  | 
2 | Cc1cc(C)cc(Cn2c(SCC(=O)Nc3ccccc3Cl)nc3ccccc32)c1 [Compound 2, N‐(2‐Chlorophenyl)‐2‐(1‐(3,5‐dimethylbenzyl)‐1H‐benzo[d]imidazol‐2‐ylthio)acetamide] | 0.971 |  | 29.1 ± 2.3 |  |  | 
3 | Cc1cc(C)cc(Cn2c(SCC(=O)Nc3ccccc3Br)nc3ccccc32)c1 [Compound 3, N‐(2‐Bromophenyl)‐2‐(1‐(3,5‐dimethylbenzyl)‐1H‐benzo[d]imidazol‐2‐ylthio)acetamide] | 0.938 |  | 26.5 ± 0.4 |  |  | 
4 | Cc1cc(C)cc(Cn2c(SCC(=O)Nc3ccc(S(C)(=O)=O)cc3Cl)nc3ccccc32)c1 [Compound 4, N‐(2‐Chloro‐4‐(methylsulfonyl)phenyl)‐2‐(1‐(3,5‐dimethylbenzyl)‐1H‐benzo[d]imidazol‐2‐ylthio)acetamide] | 0.678 |  | 17.3 ± 0.7 |  |  | 
5 | Cc1cc(C)cc(Cn2c(SCC(=O)Nc3ccc(S(N)(=O)=O)cc3Cl)nc3ccccc32)c1 [Compound 5, N‐(2‐Chloro‐4‐sulfamoylphenyl)‐2‐(1‐(3,5‐dimethylbenzyl)‐1‐benzo[d]imidazol‐2‐ylthio)acetamide] | 0.558 |  | 19.3 ± 0.9 |  |  | 
6 | Cc1cc(C)cc(Cn2c(SCC(=O)Nc3ccccc3Cl)nc3ccc(Cl)cc32)c1 [Compound 6, 2‐(6‐Chloro‐1‐(3,5‐dimethylbenzyl)‐1H‐benzo[d]imidazol‐2‐ylthio)‐N‐(2‐chlorophenyl)acetamide] | 1.221 |  | 57.4 ± 2.6 | competitive | 44.8 ± 1.4 | 25.8
7 | Cc1cc(C)cc(Cn2c(SCC(=O)Nc3ccccc3Br)nc3ccc(Cl)cc32)c1 [Compound 7, N‐(2‐Bromophenyl)‐2‐(6‐chloro‐1‐(3,5‐dimethylbenzyl)‐1H‐benzo[d]imidazol‐2‐ylthio)acetamide] | 1.195 |  | 62.2 ± 2.1 | competitive | 41.1 ± 1.9 | 21
8 | Cc1cc(C)cc(Cn2c(SCC(=O)Nc3ccc(C)cc3Cl)nc3ccc(Cl)cc32)c1 [Compound 8, 2‐(6‐chloro‐1‐(3,5‐dimethylbenzyl)‐1H‐benzo[d]imidazol‐2‐ylthio)‐N‐(2‐chloro‐4‐methylphenyl)acetamide] | 1.121 |  | 40.6 ± 0.7 |  |  | 
9 | Cc1cc(C)cc(Cn2c(SCC(=O)Nc3ccc(S(C)(=O)=O)cc3Cl)nc3ccc(Cl)cc32)c1 [Compound 9, 2‐(6‐Chloro‐1‐(3,5‐dimethylbenzyl)‐1H‐benzo[d]imidazol‐2‐ylthio)‐N‐(2‐chloro‐4‐(methylsulfonyl)phenyl)acetamide] | 1.023 |  | 31.0 ± 0.6 |  |  | 
